Results from patent US6764999B2, “Nasal delivery of parasiticides” (priority 2002, dated 2004).

Tests used:
most parasites = settings: cattle; cited from earlier work
[1] = system: Trichostrongylus colubriformis; settings: cited from earlier work
[2] = autoclave temperatures; cited from earlier work
Haemonchus contortus = settings: cited from earlier work
[3] = serum levels of ivermectin after administration to the nasal pharynx; format: in vivo, beef steers
Protocol: To study the dose/response efficacy of nasal administration of macrocyclic lactone parasicides, three (3) beef steers of mixed breeding were used to evaluate three treatments. These three treatments were:
Treatments were applied and cattle were bled via jugular venipuncture at 0, 6, 24, 48, and 96 hours post-dosing.
Table I recites serum levels of ivermectin, in nanograms per milliliter, for the three treatments recited above at 0, 6, 24, 48, and 96 hours post dosing by nasal administration. Each treatment included delivering a 1 ml mixture comprising ivermectin and propylene glycol to the nasal pharnyx of the animal.

[4] = topical, 500 micrograms per kilogram body weight; cited from earlier work
[5] = injection, about 200 micrograms per kilogram of bodyweight; cited from earlier work

Substance: ivermectin
- serum level sufficient to protect the animal against reinfestation of most parasites (most parasites): > 2 ng/mL
- inhibition of pharyngeal pumping compared with motility [1]: more potent inhibition of pharyngeal pumping than motility
- thermal stability [2]: subject to decomposition at autoclave temperatures
- inhibition of pharyngeal pumping compared with motility (Haemonchus contortus): more potent inhibition of pharyngeal pumping than motility
- serum level of ivermectin ([3]; Treatment 1, nasal, about 248 μg/kg in propylene glycol, 0 Hours): 0.19 nanograms per milliliter
- serum level of ivermectin ([3]; Treatment 1, nasal, about 248 μg/kg in propylene glycol, 6 Hours): 5.87 nanograms per milliliter
- serum level of ivermectin ([3]; Treatment 1, nasal, about 248 μg/kg in propylene glycol, 24 Hours): 15.24 nanograms per milliliter
- serum level of ivermectin ([3]; Treatment 1, nasal, about 248 μg/kg in propylene glycol, 48 Hours): 11.22 nanograms per milliliter
- serum level of ivermectin ([3]; Treatment 1, nasal, about 248 μg/kg in propylene glycol, 96 Hours): 7.58 nanograms per milliliter
- maximum serum level CMAX(1) ([3]; Treatment 1, nasal, about 248 micrograms per kilogram body weight): about 15 nanograms of ivermectin per ml of blood
- CMAX(1) ([3]; Treatment 1, nasal, about 248 micrograms per kilogram, as restated): greater than 15 ng/ml
- serum level of ivermectin ([3]; Treatment 2, nasal, about 409 μg/kg in propylene glycol, 0 Hours): 0.21 nanograms per milliliter
- serum level of ivermectin ([3]; Treatment 2, nasal, about 409 μg/kg in propylene glycol, 6 Hours): 6.58 nanograms per milliliter
- serum level of ivermectin ([3]; Treatment 2, nasal, about 409 μg/kg in propylene glycol, 24 Hours): 24.48 nanograms per milliliter
- serum level of ivermectin ([3]; Treatment 2, nasal, about 409 μg/kg in propylene glycol, 48 Hours): 19.71 nanograms per milliliter
- serum level of ivermectin ([3]; Treatment 2, nasal, about 409 μg/kg in propylene glycol, 96 Hours): 13.88 nanograms per milliliter
- maximum serum level CMAX(2) ([3]; Treatment 2, nasal, about 409 micrograms per kilogram body weight): about 24 nanograms of ivermectin per ml of blood
- serum level of ivermectin ([3]; Treatment 3, nasal, about 872 μg/kg in propylene glycol, 0 Hours): 0.22 nanograms per milliliter
- serum level of ivermectin ([3]; Treatment 3, nasal, about 872 μg/kg in propylene glycol, 6 Hours): 22.51 nanograms per milliliter
- serum level of ivermectin ([3]; Treatment 3, nasal, about 872 μg/kg in propylene glycol, 24 Hours): 40.79 nanograms per milliliter
- serum level of ivermectin ([3]; Treatment 3, nasal, about 872 μg/kg in propylene glycol, 48 Hours): 30.53 nanograms per milliliter
- serum level of ivermectin ([3]; Treatment 3, nasal, about 872 μg/kg in propylene glycol, 96 Hours): 19.38 nanograms per milliliter
- maximum serum level CMAX(3) ([3]; Treatment 3, nasal, about 872 micrograms per kilogram body weight): about 41 nanograms of ivermectin per ml of blood
- time for which serum levels of ivermectin exceed 2 ng ml^−1 ([3]; all three treatments, nasal): > 96 h
- CMAX [4]: 12.2 ng/mL
- CMAX serum level [5]: about 30 ng/ml
